# Assay results from patent publication US8846951B2 (AbbVie Inc., priority 2009, dated 2014).
# “Also recorded” adds a separate entry of the source.
# Legend:
# [1] = tested on: AMP- or PCP-induced hyperactivity; test: Psychostimulant (AMP or PCP)-induced hyperlocomotion in mice; type: in vivo, mouse
# Excerpt: (x) Assessment of Effects on Psychostimulant-Induced Hyperlocomotion in Mice
# In both humans and experimental animals amphetamine (AMP) profoundly affects motor activity, sensorimotor function, sleep, attention, aggressive and sexual behaviors, learning and memory, operant behaviors, appetite and food intake. In addition, amphetamine induces psychotic reactions in normal individuals and exacerbates symptoms of schizophrenia in patients. In experimental animals several distinct behaviors are considered to be correlates of amphetamine psychosis. For example, amphetamine-induced hyperactivity in rodents is believed to model the psychotic symptoms of schizophrenia. Reversal of these behaviors is used to predict potential antipsychotic activity of drugs in pre-clinical studies.
# In humans, phencyclidine (PCP) is known to produce a syndrome of behavioral effects which have many characteristics in common with schizophrenia. Therefore, antagonism of PCP effects might be evidence for antipsychotic efficacy of a compound.
# Male NMRI mice (5-week old, Janvier, France) or C57BL/6J mice (6-week old, Janvier, France) were group housed and allowed ad-libitum access to food and water. A 12 hour light/dark cycle was imposed with lights-on period between 0530 and 1730 hours. All testing occurred between 700 and 1300 hours. All procedures were approved by Abbott Institutional Animal Care and Use Committee (USA) or Animal Welfare Officer (Germany) and were conducted in accordance with the National Institutes of Health Guide for Care and Use of Laboratory Animals guidelines and applicable national laws in the facilities accredited by the Association for the Assessment and Accreditation of Laboratory Animal Care.
# On the day of experiment, animals were brought from the animal facility into the experimental room and were allowed to acclimatize for at least 30 minutes. Animals were then placed in the test cages for a habituation period of 60 minutes. The animals were then injected ip with the test compound and returned to the test cage. 30 Minutes later the mice were injected with d-amphetamine (2.0 mg/kg, AMP, Sigma, #A5880, sc) or phencyclidine (2.0 mg/kg, PCP, Sigma, #P3029, sc) Sigma, and returned to the test cages for 90 minutes. Each treatment group consisted of 8-10 animals. The data was acquired by Cage rack Photobeam system (SDI, San Diego Instruments, CA). The analyzed data were: fine movements, ambulations and total movements (fine+ambulations). Data was subjected to one- or two-way distribution-free ANOVA followed by Dunnett's and Tukey's post hoc tests.
# 5HT2C receptors = molecular target: T1, 5HT2C receptors (Homo sapiens, UniProt P28335); test: Human 5-HT2C functional high throughput screening assay in CHO-K1 cells (calcium flux); type: cell-based; design: expressed in transfected cells; host or cells: CHO-K1 cells
# T1 sequence (P28335 33-458): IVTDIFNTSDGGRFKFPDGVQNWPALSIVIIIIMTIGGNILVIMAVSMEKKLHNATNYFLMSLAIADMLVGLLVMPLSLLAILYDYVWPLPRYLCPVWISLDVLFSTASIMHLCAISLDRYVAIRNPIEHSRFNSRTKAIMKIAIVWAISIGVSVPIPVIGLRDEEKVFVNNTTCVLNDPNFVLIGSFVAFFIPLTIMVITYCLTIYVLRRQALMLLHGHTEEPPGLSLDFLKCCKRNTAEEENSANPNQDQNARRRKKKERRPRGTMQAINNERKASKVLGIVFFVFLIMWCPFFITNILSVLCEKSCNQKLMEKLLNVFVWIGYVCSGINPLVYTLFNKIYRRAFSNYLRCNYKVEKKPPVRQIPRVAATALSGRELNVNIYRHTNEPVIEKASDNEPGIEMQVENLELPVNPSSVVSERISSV
# In short: (§1)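 Frozen CHO-K1 cells overexpressing the receptor were plated, serum-starved overnight, then loaded with Ca4 dye plus 2.5 mM probenecid for 60 min at room temperature. FLIPR fluorescence (ex 480/em 530 nm, 25 °C) after compound addition was normalized to serotonin; EC50 and Emax came from 4-parameter logistic fits.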
# 5HT2B receptors = molecular target: T2, 5HT2B receptors (Homo sapiens, UniProt P41595); test: Human 5-HT2B functional high throughput screening assay in CHO-K1 cells (calcium flux); type: cell-based
# T2 construct: expressed in transfected cells; host or cells: CHO-K1 cells
# T2 sequence (P41595 whole entry): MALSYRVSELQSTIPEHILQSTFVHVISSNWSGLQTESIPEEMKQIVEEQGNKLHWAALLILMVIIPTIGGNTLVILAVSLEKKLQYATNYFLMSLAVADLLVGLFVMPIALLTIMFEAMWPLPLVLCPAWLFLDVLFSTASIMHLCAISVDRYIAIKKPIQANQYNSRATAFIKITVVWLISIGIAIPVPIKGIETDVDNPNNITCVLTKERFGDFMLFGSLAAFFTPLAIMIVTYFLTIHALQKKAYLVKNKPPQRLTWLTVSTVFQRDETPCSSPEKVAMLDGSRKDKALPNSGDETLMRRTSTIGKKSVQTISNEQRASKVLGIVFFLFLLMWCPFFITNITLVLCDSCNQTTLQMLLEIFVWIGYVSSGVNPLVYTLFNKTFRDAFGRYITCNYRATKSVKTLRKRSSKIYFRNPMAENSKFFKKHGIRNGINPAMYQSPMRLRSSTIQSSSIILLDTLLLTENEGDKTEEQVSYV
# In short: as §1
structure (smiles),measurement,setting,value
"CN1C[C@@H]2CNC(=O)c3cc(-c4ccc(F)cc4)ccc3[C@H]2C1 [Example 115, (3aS,10bS)-8-(4-Fluorophenyl)-2-methyl-1,2,3,3a,4,5-hexahydrobenzo[e]pyrrolo[3,4-c]azepin-6(10bH)-one]",spontaneous activity,"[1]; after ip test compound, before psychostimulant",without affecting spontaneous activity
same,AMP-induced hyperactivity,[1]; test compound ip 30 min before d-amphetamine 2.0 mg/kg sc,attenuated AMP-induced hyperactivity in mice significantly and in a dose dependent manner; also recorded: attenuating the affect of d-amphetamine (AMP)
same,EC50,"5HT2C receptors; 5-HT2C agonist activity, CHO-K1 cells, calcium flux, read-out: EC50",2 nM
same,Emax,"5HT2C receptors; CHO-K1, 5-HT2C, maximum functional response as percentage relative to the effect of serotonin, read-out: Emax",> 120%
same,EC50,"5HT2B receptors; 5-HT2B agonist activity, CHO-K1 cells, calcium flux, read-out: EC50",> 10000 nM
same,Emax,"5HT2B receptors; 5-HT2B, maximum functional response as percentage relative to the effect of serotonin",inactive
